Results: patent US10821091B2, “Retinoid compositions and methods of increasing immune cell-mediated killing of IDH mutant cancer cells” (UNIVERSITY OF PITTSBURGH—OF THE COMMONWEALTH SYSTEM OF …, priority 2017, dated 2020)

Experiments:
[1] = system: NKG2D ligands in IDH mutant cells; test: qPCR of NKG2D ligand expression in ATRA-treated glioma cells; format: cell-based, human; settings: 1 μM ATRA 48 hours, vs DMSO-treated cells
Experimental: All-trans Retinoic acid (ATRA) treatment of astrocytes and primary glioma cells. ATRA was purchased from Sigma Aldrich® and reconstituted in DMSO. ATRA was added at a 1 μM final concentration to cell culture medium for 48 hours. After treatment, the cells either lysed in Trizol™ for qPCR analysis, or were used in NK cytotoxicity assays.
Quantitative Real time RT-PCR. 5×10^5 IDH mutant and WT astrocytes, as well as patient glioma cells were lyzed in Trizol and RNA was extracted from the cells using the Chloroform extraction method. cDNA was transcribed from the RNA using iScript cDNA synthesis kit (BioRad). Real-time PCR was performed on an CFX96 Touch™ Real-Time PCR Detection System (Bio-Rad) equipped with a 96-well reaction plate. Briefly, 2 μL cDNA was added to 5 μL of the 2×SYBR Green PCR mastermix (Thermo Scientific), 800 nM of each primer, and water was added to 10 μL. The thermal denaturation protocol was run at the end of the PCR to determine the number of products that were present in the reaction. Reactions were typically run in triplicates. The cycle number at which the reaction crossed an arbitrarily-placed threshold (CT) was determined for each gene and the relative amount of each gene to 18 S rRNA was described using the equation 2^−ΔCT where ΔCT=(CTtargetRNA−CT18S rRNA).
ATRA induced increased cytotoxic killing of IDH mutant cells in an NKG2D-ligand dependent manner. The ability of ATRA to sensitize IDH mutant cells to killing by NK cells was evaluated. For this purpose, IDH mutant and WT cells were treated with 1 μM ATRA for 48 hours and assessed for killing by NK-92 cells (ATCC) at a 10:1 E:T ratio. […] Also, as observed in vivo, increased NK-92 killing in IDH mutant cells was dependent upon NKG2D engagement. […] ATRA-treated cells were also evaluated for expression of NKG2D ligands.

IDH mutant gliomas = test: Survival in RCAS tva immunocompetent glioma mouse model; format: in vivo, mice
Experimental: Immunocompetent mouse model. The RCAS/tva system was used to ectopically express muIDH1 (R132H) in PDGF-driven gliomas. RCAS retroviral vectors were used to transfer genes to specific cell types in vivo that express the receptor tva to develop a pair of isogenic mouse tumor models that differ only in IDH1 mutation status. Three RCAS vectors expressing PDGF, wtIDH1-shp53, or muIDH1 (R132H)-shp53 were constructed and used in three different Ntva mouse strains. Mice were injected with RCAS-PDGF-producing DF1 cells together with either DF1 cells producing RCAS-wtIDH1-shp53 (wtIDH1) or RCAS-mutantIDH1-shp53 (muIDH1). Tumors were generated from these injections with identical genomic backgrounds, with the initiating events differing only in IDH1 mutation status.

[2] = system: IDH mutant cells from primary gliomas; test: Gene microarray (Clariom S) and pathway analysis; format: cell-based, human
Experimental: To evaluate overall gene expression changes and to decipher pathway activation in IDH mutants after ATRA treatment, a gene microarray was performed. IDH wt and mutant cells from primary gliomas were treated with 1 μM ATRA for 48 hours and RNA was extracted from the cells. Microarray analysis was performed using Clariom S microarray chips.

[3] = system: ATRA-treated IDH mutant cells; test: Transwell chemotaxis assay of immune cell subsets; format: cell-based, human
Experimental: ATRA increases chemotaxis towards IDH mutant cells in a CCL2-dependent manner. […] To confirm these findings, chemotaxis assays were performed in vitro. ATRA-treated IDH mutant or WT cells were plated in the bottom well of a transwell. Different immune cell subsets (as indicated) were placed in the top chamber at a 10:1 E:T ratio. After 48 hours, cells from the bottom chamber were harvested and analyzed by flow cytometry. […] To evaluate the mechanisms of changes in chemotaxis induced by ATRA, a chemokine array was performed. Supernatants from ATRA- (or DMSO)-treated WT and IDH mutant cultures were used to assess changes in chemokine expression using a chemokine array kit (R&D systems). Results were interpreted visually as well as quantified using an imaging software (ImageJ). […] To substantiate the role of CCL2 in NK and T cell chemotaxis, transwell assays were repeated as described earlier, in the presence of CCL2-blocking antibody (R&D systems).

[4] = system: IDH mutant primary glioma neurospheres; test: Differentiation of primary glioma neurospheres; format: cell-based, human; settings: for morphological changes: 1 μM ATRA
Experimental: Glioma cell culture. Resected tumors from Glioma patients (both IDH wt and mutant) were mechanically dissociated to form a single cell suspension. Contaminating RBCs were removed using an RBC lysis buffer (eBioscience) and cells were propagated into neural stem cells in Neurocult™ NS-A proliferation kit supplemented with 20 ng/mL Human Recombinant EGF, 10 ng/mL Human Recombinant bFGF) and 2 μg/mL Heparin Solution (Stemcell Technologies Canada Inc.). After 3 weeks in culture, neurospheres were moved to Complete Medium (CM) in order to propagate differentiation into adherent cell lines.
All-trans retinoic acid (ATRA) is a differentiating agent for multiple types of cancers, including IDH mutant acute myeloid leukemia (AML). Therefore, efficacy of ATRA as a differentiating agent in IDH mutant gliomas was evaluated. IDH mutant or WT primary glioma neurospheres were treated with 1 μM ATRA for 2, 7 or 14 days. At each time point, cells were evaluated for morphological changes and changes in their molecular profile. Vehicle (DMSO)-treated cells served as controls, while cells treated with 10% FBS served as differentiation (positive) controls.

[5] = system: RBP1 in IDH mutant (HT-1080) cells; test: RBP1 levels by qPCR in chondrosarcoma cells; format: cell-based; settings: 1 μM or 10 μM ATRA, 48 hours
Source text: IDH mutant tumor cells produce reduced amounts of RBP1 compared to WT IDH tumor cells (FIG. 11D).

[6] = system: IDH mutant chondrosarcoma cells (HT-1080 and SW 1353); test: NK killing of chondrosarcoma cells; format: cell-based; settings: different doses of ATRA, 48 hours; at least two chondrosarcoma cell lines
Experimental: IDH WT chondrosarcoma cells and IDH mutant chondrosarcoma cells were treated with different doses of ATRA or DMSO for 48 hours and were evaluated for killing by NK cells (FIG. 11F). NK cytotoxicity on IDH WT chondrosarcoma cells and IDH mutant chondrosarcoma cells was evaluated.

[7] = towards ATRA-treated IDH mutant cells vs DMSO-treated controls, 48 hours
[8] = towards ATRA-treated IDH mutant cells, 48 hours

SMILES: CC1=C(/C=C/C(C)=C/C=C/C(C)=C/C(=O)O)C(C)(C)CCC1 [ATRA, all-trans retinoic acid]
- expression of NKG2D ligand MICA [1]: increased expression
- expression of NKG2D ligand MICB [1]: increased expression
- expression of NKG2D ligand ULBP1 [1]: increased expression
- expression of NKG2D ligand ULBP3 [1]: increased expression
- infiltration of NK cells in the tumor (immunohistochemistry) (IDH mutant gliomas; ATRA-treated mice): increased infiltration of NK cells in the tumor
- survival (IDH mutant gliomas; mice bearing IDH mutant tumors, ATRA every alternate day for 21 days, vs vehicle-treated/IDH wild type): significantly longer survival
- gene expression of inflammatory chemokines CXCL1, CXCL9 and CXCL10 ([2]; 1 μM ATRA 48 hours (data not shown)): upregulated the gene expression of multiple inflammatory chemokines
- pathway analysis of upregulated genes ([2]; IDH mutant cells, 1 μM ATRA 48 hours): immune cell chemotaxis was one of the most upregulated pathways
- NK and T cell migration in the presence of CCL2-blocking antibody ([3]; ATRA-treated IDH mutant cells): reversed the increased NK (FIG. 6M) and T cell (FIG. 6N) migration
- migration of Tregs in the presence of CCL2-blocking antibody ([3]; ATRA-treated IDH mutant cells): did not impact the migration of Tregs
- migration of CD8+ T cells [3, 7]: increased migration
- migration of M1 macrophages [3, 7]: increased migration
- migration of NK cells [3, 7]: increased migration
- migration of M2 macrophages [3, 8]: decreased migration
- migration of Monocytes [3, 8]: decreased migration
- migration of Tregs [3, 8]: decreased migration
- morphological changes ([4]; 14 days): induced morphological changes in IDH mutant primary glioma neurospheres, but not WT neurospeheres
- morphological changes ([4]; earlier time points): Minimal morphological changes
- time of ATRA treatment after which differentiation occurred ([4]; IDH mutant glioma stem cells): > 10 days
- levels of stem cell markers Sox2, CD133 and Nestin ([4]; IDH mutant neurospheres, ATRA 14 days, PCR (Nestin also flow cytometry)): significantly lower levels
- levels of GFAP, astrocytic differentiation marker ([4]; IDH mutant neurospheres, ATRA 14 days, PCR and flow cytometry): increased levels of GFAP
- RBP1 levels [5]: increased RBP1 levels in IDH mutant chondrosarcoma cells in a dose dependent manner
- NK-mediated cell killing [6]: increased NK-mediated cell killing of IDH mutant chondrosarcoma cells
